In patent US8772323B2, “Benzoxazole- and tetrahydrobenzoxazole-substituted pyridazinones as GPR119 agonists” (Boehringer Ingelheim International GmbH, priority 2010, dated 2014):
Where a name gives a salt, the structure may show the parent alone.

The compounds below were run against human GPR119 (Homo sapiens (Human), UniProt Q8TDV5) (assay: AlphaScreen cAMP assay in Min-6/hGPR119 cells (GPR119 activation, intracellular cAMP)). Conditions: MIN6 cells stably transfected with human GPR119; 45 minutes' incubation at RT; AlphaScreen cAMP Assay Kit.
Chain of human GPR119 (Q8TDV5 whole entry): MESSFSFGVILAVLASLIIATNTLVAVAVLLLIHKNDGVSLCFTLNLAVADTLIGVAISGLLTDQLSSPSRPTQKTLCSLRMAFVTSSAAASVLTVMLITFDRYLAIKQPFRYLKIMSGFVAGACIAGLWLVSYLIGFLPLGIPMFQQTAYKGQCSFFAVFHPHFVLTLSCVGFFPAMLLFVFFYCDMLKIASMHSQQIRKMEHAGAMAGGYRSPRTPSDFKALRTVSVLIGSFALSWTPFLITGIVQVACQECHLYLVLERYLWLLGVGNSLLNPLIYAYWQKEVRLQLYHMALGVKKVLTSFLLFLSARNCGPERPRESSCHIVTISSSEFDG
Format: cell-based
In short: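 cAMP quantified by AlphaScreen after 45 min room-temperature compound exposure in HEPES/bicarbonate buffer, pH 7.4, containing 0.5 mM IBMX, 0.1% BSA and 1% DMSO final. Cells were Min-6 stably transfected with human GPR119, seeded 24 h beforehand.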
`CC1CC(=O)NN=C1c1ccc2nc(-c3cccc(OCC4CCNCC4)c3)oc2c1` (centres unmarked) [Example 73, 5-methyl-6-{2-[3-(piperidin-4-ylmethoxy)-phenyl]-benzoxazol-6-yl}-4,5-dihydro-2H-pyridazin-3-one hydrochloride] gave an EC50 of 6770 nM.
`CCC1CC(=O)NN=C1c1ccc2nc(-c3ccc(OCC4CCN(S(C)(=O)=O)CC4)cc3)oc2c1` (centres unmarked) [Example 74, 5-ethyl-6-{2-[4-(1-methanesulphonyl-piperidin-4-ylmethoxy)-phenyl]-benzoxazol-6-yl}-4,5-dihydro-2H-pyridazin-3-one] gave an EC50 of 240 nM.
For `CCC1CC(=O)NN=C1c1ccc2nc(-c3ccc(/C=C/c4ccccc4)cc3)oc2c1` (centres unmarked) [Example 75, 5-ethyl-6-{2-[4-styryl-phenyl]-benzoxazol-6-yl}-4,5-dihydro-2H-pyridazin-3-one], the EC50 was 384 nM.
`CCC1CC(=O)NN=C1c1ccc2nc(-c3ccc(CCc4ccccc4)cc3)oc2c1` (centres unmarked) [Example 76, 5-ethyl-6-[2-(4-phenethyl-phenyl)-benzoxazol-6-yl]-4,5-dihydro-2H-pyridazin-3-one] was tested, and the EC50 was 245 nM.
`CCC1SC(=O)NN=C1c1ccc2nc(-c3ccccc3)oc2c1` (centres unmarked) [Example 77, 6-ethyl-5-(2-phenyl-benzoxazol-6-yl)-3,6-dihydro-[1,3,4]thiadiazin-2-one] gave an EC50 of 141 nM.
With `CCC1OC(=O)NN=C1c1ccc2nc(-c3ccccc3)oc2c1` (centres unmarked) [Example 78, 6-ethyl-5-(2-phenyl-benzoxazol-6-yl)-3,6-dihydro-[1,3,4]oxadiazin-2-one] the EC50 was 61 nM.
In the case of `CC1OC(=O)NN=C1c1ccc2nc(-c3ccccc3)oc2c1` (centres unmarked) [Example 81, 6-methyl-5-(2-phenyl-1,3-benzoxazol-6-yl)-3,6-dihydro-2H-1,3,4-oxadiazin-2-one], the EC50 is reported as 31 nM.
`CC1CC(=O)NN=C1c1ccc2nc(-c3ccccc3)oc2c1` (centres unmarked) [Example 82, 5-methyl-6-(2-phenyl-benzoxazol-6-yl)-4,5-dihydro-2H-pyridazin-3-one] showed an EC50 of 189 nM.
In the case of `COc1ccc(-c2nc3ccc(C4=NNC(=O)CC4C)cc3o2)cc1` (centres unmarked) [Example 83, 6-[2-(4-methoxy-phenyl)-benzoxazol-6-yl]-5-methyl-4,5-dihydro-2H-pyridazin-3-one], the EC50 is reported as 94 nM.
`CC1CC(=O)NN=C1c1ccc2nc(-c3ccc(Cl)cc3)oc2c1` (centres unmarked) [Example 84, 6-[2-(4-chloro-phenyl)-benzoxazol-6-yl]-5-methyl-4,5-dihydro-2H-pyridazin-3-one] gave an EC50 of 132 nM.
`COc1cccc(-c2nc3ccc(C4=NNC(=O)CC4C)cc3o2)c1` (centres unmarked) [Example 85, 6-[2-(3-methoxy-phenyl)-benzoxazol-6-yl]-5-methyl-4,5-dihydro-2H-pyridazin-3-one] gave an EC50 of 334 nM.
For `COc1ccccc1-c1nc2ccc(C3=NNC(=O)CC3C)cc2o1` (centres unmarked) [Example 86, 6-[2-(2-methoxy-phenyl)-benzoxazol-6-yl]-5-methyl-4,5-dihydro-2H-pyridazin-3-one], the EC50 was 1150 nM.
Compound `Cc1ccc(-c2nc3ccc(C4=NNC(=O)CC4C)cc3o2)s1` (centres unmarked) [Example 87, 5-methyl-6-[2-(5-methyl-thiophen-2-yl)-benzoxazol-6-yl]-4,5-dihydro-2H-pyridazin-3-one] has an EC50 of 100 nM.
`CC1CC(=O)NN=C1c1ccc2nc(-c3cccc(Cl)c3)oc2c1` (centres unmarked) [Example 88, 6-[2-(3-chloro-phenyl)-benzoxazol-6-yl]-5-methyl-4,5-dihydro-2H-pyridazin-3-one] showed an EC50 of 260 nM.
For `CC1CC(=O)NN=C1c1ccc2nc(-c3ccccc3Cl)oc2c1` (centres unmarked) [Example 89, 6-[2-(2-chloro-phenyl)-benzoxazol-6-yl]-5-methyl-4,5-dihydro-2H-pyridazin-3-one], the EC50 was 415 nM.
`COC(=O)c1ccc(-c2nc3ccc(C4=NNC(=O)CC4C)cc3o2)cc1` (centres unmarked) [Example 90, methyl 4-[6-(4-methyl-6-oxo-1,4,5,6-tetrahydro-pyridazin-3-yl)-benzoxazol-2-yl]-benzoate] gave an EC50 of 763 nM.
`CCC1CC(=O)NN=C1c1ccc2nc(-c3ccc(OC)cc3F)oc2c1` (centres unmarked) [Example 91, 5-ethyl-6-[2-(2-fluoro-4-methoxy-phenyl)-benzoxazol-6-yl]-4,5-dihydro-2H-pyridazin-3-one] gave an EC50 of 142 nM.
With `CCC1CC(=O)NN=C1c1ccc2nc(-c3ccc(OC)c(OC)c3)oc2c1` (centres unmarked) [Example 92, 6-[2-(3,4-dimethoxy-phenyl)-benzoxazol-6-yl]-5-ethyl-4,5-dihydro-2H-pyridazin-3-one] the EC50 was 460 nM.
In the case of `CCC1CC(=O)NN=C1c1ccc2nc(-c3ccc(F)c(OC)c3)oc2c1` (centres unmarked) [Example 93, 5-ethyl-6-[2-(4-fluoro-3-methoxy-phenyl)-benzoxazol-6-yl]-4,5-dihydro-2H-pyridazin-3-one], the EC50 is reported as 397 nM.
With `CCC1CC(=O)NN=C1c1ccc2nc(-c3ccc(Oc4ccccc4)cc3)oc2c1` (centres unmarked) [Example 95, 5-ethyl-6-[2-(4-phenoxy-phenyl)-benzoxazol-6-yl]-4,5-dihydro-2H-pyridazin-3-one] the EC50 was 67 nM.
`CCC1CC(=O)NN=C1c1ccc2nc(-c3ccc(N(C)C)cc3)oc2c1` (centres unmarked) [Example 96, 6-[2-(4-dimethylamino-phenyl)-benzoxazol-6-yl]-5-ethyl-4,5-dihydro-2H-pyridazin-3-one] was tested, and the EC50 was 42 nM.
`CCC1CC(=O)NN=C1c1ccc2nc(-c3cc(C)cs3)oc2c1` (centres unmarked) [Example 97, 5-ethyl-6-[2-(4-methyl-thiophen-2-yl)-benzoxazol-6-yl]-4,5-dihydro-2H-pyridazin-3-one] showed an EC50 of 225 nM.
`CCC1CC(=O)NN=C1c1ccc2nc(-c3ccc(OC)c(F)c3)oc2c1` (centres unmarked) [Example 98, 5-ethyl-6-[2-(3-fluoro-4-methoxy-phenyl)-benzoxazol-6-yl]-4,5-dihydro-2H-pyridazin-3-one] was tested, and the EC50 was 294 nM.
`CCC1CC(=O)NN=C1c1ccc2nc(-c3ccc(OC(C)C)cc3)oc2c1` (centres unmarked) [Example 99, 5-ethyl-6-[2-(4-isopropoxy-phenyl)-benzoxazol-6-yl]-4,5-dihydro-2H-pyridazin-3-one] was tested, and the EC50 was 59 nM.
`CCC1CC(=O)NN=C1c1ccc2nc(-c3cccc(OC(C)C)c3)oc2c1` (centres unmarked) [Example 100, 5-ethyl-6-[2-(3-isopropoxy-phenyl)-benzoxazol-6-yl]-4,5-dihydro-2H-pyridazin-3-one] was tested, and the EC50 was 442 nM.
In the case of `CCC1CC(=O)NN=C1c1ccc2nc(-c3ccc(C)s3)oc2c1` (centres unmarked) [Example 101, 5-ethyl-6-[2-(5-methyl-thiophen-2-yl)-benzoxazol-6-yl]-4,5-dihydro-2H-pyridazin-3-one], the EC50 is reported as 194 nM.
Compound `CCC1CC(=O)NN=C1c1ccc2nc(-c3cccc(OC)c3)oc2c1` (centres unmarked) [Example 102, 5-ethyl-6-[2-(3-methoxy-phenyl)-benzoxazol-6-yl]-4,5-dihydro-2H-pyridazin-3-one] has an EC50 of 316 nM.
With `CCC1CC(=O)NN=C1c1ccc2nc(-c3ccc(OC(F)(F)F)cc3)oc2c1` (centres unmarked) [Example 103, 5-ethyl-6-[2-(4-trifluoromethoxy-phenyl)-benzoxazol-6-yl]-4,5-dihydro-2H-pyridazin-3-one] the EC50 was 1210 nM.
`CCC1CC(=O)NN=C1c1ccc2nc(-c3ccc(OC)cc3)oc2c1` (centres unmarked) [Example 104, 5-ethyl-6-[2-(4-methoxy-phenyl)-benzoxazol-6-yl]-4,5-dihydro-2H-pyridazin-3-one] showed an EC50 of 120 nM.
For `CCC1CC(=O)NN=C1c1ccc2nc(-c3ccc(OC4CCOCC4)cc3)oc2c1` (centres unmarked) [Example 105, 5-ethyl-6-{2-[4-(tetrahydro-pyran-4-yloxy)-phenyl]-benzoxazol-6-yl}-4,5-dihydro-2H-pyridazin-3-one], the EC50 was 80 nM.
`O=C1CCC(c2ccc3nc(-c4cccs4)oc3c2)=NN1` [Example 111, 6-(2-thiophen-2-yl-benzoxazol-6-yl)-4,5-dihydro-2H-pyridazin-3-one] was tested, and the EC50 was 967 nM.
For `O=C1CCC(c2ccc3nc(-c4ccco4)oc3c2)=NN1` [Example 112, 6-(2-furan-2-yl-benzoxazol-6-yl)-4,5-dihydro-2H-pyridazin-3-one], the EC50 was 1320 nM.
Compound `O=C1CCC(c2ccc3nc(N4CCCCC4)oc3c2)=NN1` [Example 118, 6-(2-piperidin-1-yl-benzoxazol-6-yl)-4,5-dihydro-2H-pyridazin-3-one] has an EC50 of 3740 nM.
Compound `O=C1CCC(c2ccc3nc(N4CCSCC4)oc3c2)=NN1` [Example 119, 6-(2-thiomorpholin-1-yl-benzoxazol-6-yl)-4,5-dihydro-2H-pyridazin-3-one] has an EC50 of 3460 nM.
`CC1CC(=O)NN=C1c1ccc2nc(-c3ccc(C#N)cc3)oc2c1` (centres unmarked) [Example 122, 4-[6-(4-methyl-6-oxo-1,4,5,6-tetrahydro-pyridazin-3-yl)-benzoxazol-2-yl]-benzonitrile] showed an EC50 of 4000 nM.
With `CC1CC(=O)NN=C1c1ccc2nc(-c3cccc(C#N)c3)oc2c1` (centres unmarked) [Example 123, 3-[6-(4-methyl-6-oxo-1,4,5,6-tetrahydropyridazin-3-yl)-1,3-benzoxazol-2-yl]benzonitrile] the EC50 was 902 nM.
`CC1CC(=O)NN=C1c1ccc2nc(-c3ccc(CN)cc3)oc2c1` (centres unmarked) [Example 124, 6-[2-(4-aminomethyl-phenyl)-benzoxazol-6-yl]-5-methyl-4,5-dihydro-2H-pyridazin-3-one] gave an EC50 of 8720 nM.
Work on `CC1CC(=O)NN=C1c1ccc2nc(-c3cccc(CN)c3)oc2c1` (centres unmarked) [Example 125, 6-{2-[3-(aminomethyl)phenyl]1,3-benzoxazol-6-yl}-5-methyl-2,3,4,5-tetrahydropyridazin-3-one] yielded an EC50 of 1600 nM.
`CC[C@H]1C(=O)NN=C(c2ccc3nc(-c4ccccc4)oc3c2)[C@H]1C` [Example 127, (4R,5S)-4-ethyl-5-methyl-6-(2-phenyl-1,3-benzoxazol-6-yl)-2,3,4,5-tetrahydropyridazin-3-one] gave an EC50 of 2590 nM.
`O=C1NN=C(C2CCc3nc(-c4ccccc4)oc3C2)C2CC12` (centres unmarked) [Example 130, 5-(2-phenyl-4,5,6,7-tetrahydro-benzoxazol-6-yl)-3,4-diaza-bicyclo[4.1.0]hept-4-en-2-one] gave an EC50 of 814 nM.
Work on `O=C1NN=C([C@H]2CCc3nc(-c4ccccc4)oc3C2)[C@H]2C[C@@H]12` [Example 131, (1R,6S)-5-((S)-2-phenyl-4,5,6,7-tetrahydro-benzoxazol-6-yl)-3,4-diaza-bicyclo[4.1.0]hept-4-en-2-one] yielded an EC50 of 7700 nM.
